Assay results reported in ChEMBL document CHEMBL1201862, “PubChem BioAssay data set” (2004).
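Where inhibition never reached the appropriate level, the endpoint shown equals the highest concentration tested. Otherwise, values were interpolated linearly from a five-concentration, 48-hour dose response in 96-well plates. Abbreviation: GI50, concentration required for 50% inhibition of growth.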 Activity calls are given as the source filed them. Cut-off read from the data, not from the text of the source: active = GI50 up to about 1.1 µM and inactive = higher.

Experiments:
Experiment in all cases: NCI-60 cell line screen, 48 h
Hs-578T = system: Hs-578T
UACC-257 = system: UACC-257
MDA-N = system: MDA-N
Malme-3M = system: Malme-3M
HL-60 = system: HL-60
NCI/ADR-RES = system: NCI/ADR-RES
HCT-116 = system: HCT-116
SK-MEL-5 = system: SK-MEL-5
NCI-H23 = system: NCI-H23
UACC-62 = system: UACC-62
SN12C = system: SN12C
RPMI-8226 = system: RPMI-8226
T47D = system: T47D
SK-MEL-2 = system: SK-MEL-2
A498 = system: A498
HOP-62 = system: HOP-62
MOLT-4 = system: MOLT-4
HOP-92 = system: HOP-92
OVCAR-8 = system: OVCAR-8
BT-549 = system: BT-549

Measured: GI50

COc1cc2nn(-c3ccccc3)nc2c2nonc12
inactive: Hs-578T 77.3 µM | UACC-257 > 100 µM | MDA-N > 100 µM | Malme-3M > 100 µM | HL-60 > 100 µM | NCI/ADR-RES > 100 µM | HCT-116 41 µM | SK-MEL-5 > 100 µM | NCI-H23 > 100 µM | UACC-62 > 100 µM | SN12C > 100 µM | RPMI-8226 > 100 µM | T47D > 100 µM | SK-MEL-2 > 100 µM | A498 > 100 µM | HOP-62 > 100 µM | MOLT-4 > 100 µM

COC1(C)C(=O)N2C1N(C(=O)OC(C)(C)C)CC2(C)C (centres undefined)
inactive: UACC-257 > 100 µM | Malme-3M > 100 µM | HL-60 > 100 µM | HOP-92 > 100 µM | HCT-116 96.4 µM | SK-MEL-5 > 100 µM | NCI-H23 > 100 µM | UACC-62 > 100 µM | SN12C > 100 µM | RPMI-8226 44.8 µM | OVCAR-8 > 100 µM | SK-MEL-2 > 100 µM | A498 > 100 µM | HOP-62 > 100 µM | MOLT-4 > 100 µM

CCOC(=O)C(=C=Cc1cccs1)C(=O)c1ccccc1
inactive: UACC-257 12.9 µM | Malme-3M 15.7 µM | HL-60 24.6 µM | HOP-92 5.15 µM | HCT-116 14.6 µM | SK-MEL-5 3.38 µM | NCI-H23 15.4 µM | UACC-62 15.5 µM | SN12C 15.8 µM | RPMI-8226 18.3 µM | OVCAR-8 15.8 µM | SK-MEL-2 19 µM | A498 19.9 µM | HOP-62 18.7 µM | MOLT-4 19.2 µM

CCC(C)N1CN(c2ccccc2)C2(CCN(CC3COc4ccccc4O3)CC2)C1=O (centres undefined)
inactive: UACC-257 23.9 µM | MDA-N 25.6 µM | Malme-3M 18.5 µM | HL-60 14.4 µM | NCI/ADR-RES 17.8 µM | HCT-116 15.9 µM | SK-MEL-5 14.7 µM | NCI-H23 22.9 µM | UACC-62 19 µM | SN12C 27.7 µM | RPMI-8226 13.3 µM | OVCAR-8 26.2 µM | T47D 16 µM | BT-549 14.3 µM | HOP-62 19.4 µM | MOLT-4 16.1 µM

C=CCc1cc(-c2cc(CC=C)c(O)c(CNC)c2)cc(CNC)c1O
inactive: UACC-257 16 µM | Malme-3M 18.7 µM | HL-60 14.9 µM | HOP-92 11.1 µM | HCT-116 14.7 µM | SK-MEL-5 16.1 µM | NCI-H23 15.8 µM | UACC-62 18.1 µM | SN12C 17.1 µM | RPMI-8226 20.7 µM | OVCAR-8 17.6 µM | SK-MEL-2 18.6 µM | A498 20.3 µM | HOP-62 18.8 µM | MOLT-4 10.9 µM

N#CC(C#N)=C1SCC(=O)CS1
inactive: UACC-257 > 100 µM | Malme-3M > 100 µM | HL-60 > 100 µM | HOP-92 > 100 µM | HCT-116 > 100 µM | SK-MEL-5 > 100 µM | NCI-H23 > 100 µM | UACC-62 > 100 µM | SN12C > 100 µM | RPMI-8226 > 100 µM | OVCAR-8 > 100 µM | A498 > 100 µM | HOP-62 > 100 µM | MOLT-4 > 100 µM

NC(=O)C(=O)n1ncc(Cl)c(Cl)c1=O
inactive: Hs-578T > 100 µM | UACC-257 34 µM | MDA-N > 100 µM | Malme-3M 17.5 µM | HL-60 5.26 µM | NCI/ADR-RES 24.4 µM | HOP-92 > 42.3 µM | HCT-116 29.1 µM | SK-MEL-5 18.3 µM | NCI-H23 32.7 µM | UACC-62 31.5 µM | SN12C 18.6 µM | RPMI-8226 11.7 µM | OVCAR-8 24.2 µM | T47D > 100 µM | SK-MEL-2 23.8 µM | A498 > 72.9 µM | HOP-62 > 100 µM | MOLT-4 3.59 µM

CCCC(O)c1cn(-c2cccc(S(=O)(=O)O)c2)nn1 (centres undefined)
inactive: UACC-257 > 100 µM | Malme-3M > 100 µM | HL-60 > 100 µM | HOP-92 > 100 µM | HCT-116 > 100 µM | SK-MEL-5 > 100 µM | NCI-H23 > 100 µM | UACC-62 > 100 µM | SN12C > 100 µM | RPMI-8226 > 100 µM | OVCAR-8 > 100 µM | SK-MEL-2 > 100 µM | A498 > 100 µM | HOP-62 > 100 µM | MOLT-4 > 100 µM

CC1(C)OC[C@@H]([C@H](C=O)OCc2ccccc2)O1
inactive: Hs-578T > 100 µM | UACC-257 > 100 µM | MDA-N > 100 µM | Malme-3M > 100 µM | NCI/ADR-RES > 100 µM | HOP-92 > 100 µM | HCT-116 > 100 µM | SK-MEL-5 > 100 µM | NCI-H23 > 100 µM | UACC-62 > 100 µM | SN12C > 100 µM | RPMI-8226 > 100 µM | OVCAR-8 > 100 µM | SK-MEL-2 > 100 µM | A498 > 100 µM | HOP-62 > 100 µM | MOLT-4 > 100 µM

COc1ccc(C2OC(c3ccncc3)=NN2C)cc1OC (centres undefined)
inactive: Hs-578T 67 µM | UACC-257 > 100 µM | MDA-N > 100 µM | Malme-3M > 100 µM | HL-60 96.8 µM | NCI/ADR-RES > 100 µM | HOP-92 48.9 µM | HCT-116 > 100 µM | SK-MEL-5 92.5 µM | NCI-H23 > 100 µM | UACC-62 > 100 µM | SN12C > 100 µM | RPMI-8226 > 100 µM | OVCAR-8 > 100 µM | T47D 67.1 µM | SK-MEL-2 > 100 µM | A498 33.5 µM | HOP-62 94.6 µM | MOLT-4 75.7 µM

C/C(=N/Nc1ccc([N+](=O)[O-])cc1[N+](=O)[O-])C(CC(C(=O)Nc1ccccc1C)/C(C)=N\Nc1ccc([N+](=O)[O-])cc1[N+](=O)[O-])C(=O)Nc1ccccc1C (centres undefined)
inactive: UACC-257 14.4 µM | Malme-3M 22.5 µM | HL-60 1.19 µM | HOP-92 7.08 µM | HCT-116 13.5 µM | SK-MEL-5 17.2 µM | NCI-H23 11.3 µM | UACC-62 19.6 µM | SN12C 6 µM | RPMI-8226 > 35 µM | OVCAR-8 6 µM | SK-MEL-2 13.3 µM | A498 14.9 µM | HOP-62 11.9 µM

CCOC(=O)C(=CNc1ccc(N(C2=NCC(C)S2)c2ccc(F)c(Cl)c2)cc1)C(=O)OCC (centres undefined)
inactive: Hs-578T 22.8 µM | UACC-257 17.1 µM | MDA-N 21.2 µM | Malme-3M 20.8 µM | HL-60 24.7 µM | NCI/ADR-RES 17.1 µM | HOP-92 18.1 µM | HCT-116 16 µM | SK-MEL-5 18.7 µM | NCI-H23 17.5 µM | SN12C 17.9 µM | RPMI-8226 21.3 µM | OVCAR-8 18.8 µM | T47D 13.9 µM | SK-MEL-2 20.4 µM | A498 21.9 µM | HOP-62 21.1 µM | MOLT-4 19.1 µM

COC(=O)C1=C(O)C(O)=C(C(=O)OC)CC1
inactive: UACC-257 > 100 µM | Malme-3M > 100 µM | HL-60 > 100 µM | HOP-92 > 100 µM | HCT-116 15.1 µM | SK-MEL-5 > 100 µM | NCI-H23 > 100 µM | UACC-62 > 100 µM | SN12C > 100 µM | RPMI-8226 > 100 µM | OVCAR-8 > 100 µM | SK-MEL-2 > 100 µM | A498 > 100 µM | HOP-62 > 100 µM | MOLT-4 > 100 µM

CC(C)(C)NNC(=O)/C(=C/c1ccc([N+](=O)[O-])cc1)NC(=O)c1ccccc1
inactive: UACC-257 > 100 µM | Malme-3M > 100 µM | HL-60 44.8 µM | HOP-92 > 100 µM | HCT-116 > 10 µM | SK-MEL-5 > 100 µM | NCI-H23 > 100 µM | UACC-62 > 100 µM | SN12C > 100 µM | RPMI-8226 45 µM | OVCAR-8 > 100 µM | SK-MEL-2 > 100 µM | A498 > 100 µM | HOP-62 > 100 µM | MOLT-4 41.3 µM

N#Cc1nc(-c2ccccc2O)oc1N
inactive: Hs-578T 40.9 µM | UACC-257 > 100 µM | MDA-N > 100 µM | HL-60 > 100 µM | HOP-92 > 100 µM | HCT-116 78.2 µM | SK-MEL-5 61.4 µM | UACC-62 95.9 µM | SN12C 81.1 µM | RPMI-8226 20.4 µM | OVCAR-8 89.1 µM | SK-MEL-2 > 100 µM | A498 80.9 µM | HOP-62 > 100 µM | MOLT-4 60.4 µM

COc1ccc(Nc2nc3c(N)cc(C(F)(F)F)cc3nc2-c2ccccc2)cc1
inactive: UACC-257 > 100 µM | Malme-3M 78.3 µM | HL-60 16.9 µM | HOP-92 37.6 µM | HCT-116 > 100 µM | SK-MEL-5 57.1 µM | NCI-H23 69.7 µM | UACC-62 > 100 µM | SN12C > 100 µM | OVCAR-8 > 100 µM | SK-MEL-2 89.5 µM | A498 > 100 µM | HOP-62 83.2 µM | MOLT-4 > 100 µM

COC(=O)c1ccc(OCCn2nnc(C(=O)NN)c2C(=O)NN)cc1
inactive: UACC-257 > 100 µM | MDA-N > 100 µM | Malme-3M > 100 µM | HL-60 > 100 µM | NCI/ADR-RES > 100 µM | HOP-92 > 100 µM | HCT-116 > 100 µM | SK-MEL-5 > 100 µM | NCI-H23 > 100 µM | SN12C > 100 µM | RPMI-8226 > 100 µM | OVCAR-8 > 100 µM | BT-549 > 100 µM | SK-MEL-2 > 100 µM | HOP-62 > 100 µM | MOLT-4 > 100 µM
